According to US7348425B2, “Inhibitors of HCV replication” (Bristol-Myers Squibb Company, priority 2004, dated 2008):
Where two headings read alike, the source gives them in different places.

Legend:
[1] = target: T1, HCV NS5B RdRp genotype 1b (Hepatitis C virus genotype 1b, UniProt Q9WMX2); experiment: Standard HCV NS5B RdRp enzyme assay; format: biochemical; conditions: standard method
T1 construct: The protein was expressed with an 18 amino acid C-terminal truncation to enhance the solubility; made in house; host or cells: E. coli BL21 (DE3), pET21a
Method: HCVNS5B RdRp cloning, expression, and purification. The cDNA encoding the NS5B protein of HCV, genotype 1b, was cloned into the pET21a expression vector. The protein was expressed with an 18 amino acid C-terminal truncation to enhance the solubility. The E. coli competent cell line BL21 (DE3) was used for expression of the protein. Cultures were grown at 37° C. for ˜4 hours until the cultures reached an optical density of 2.0 at 600 nm. The cultures were cooled to 20° C. and induced with 1 mM IPTG. Fresh ampicillin was added to a final concentration of 50 μg/ml and the cells were grown overnight at 20° C.
Cell pellets (3 L) were lysed for purification to yield 15-24 mgs of purified NS5B. The lysis buffer consisted of 20 mM Tris-HCl, pH 7.4, 500 mM NaCl, 0.5% triton X-100, 1 mM DTT, 1 mM EDTA, 20% glycerol, 0.5 mg/ml lysozyme, 10 mM MgCl2, 15 ug/ml deoxyribonuclease I, and Complete TM protease inhibitor tablets (Roche). After addition of the lysis buffer, frozen cell pellets were resuspended using a tissue homogenizer. To reduce the viscosity of the sample, aliquots of the lysate were sonicated on ice using a microtip attached to a Branson sonicator. The sonicated lysate was centrifuged at 100,000×g for 1 hr at 4° C. and filtered through a 0.2 μm filter unit (Corning).
The protein was purified using three sequential chromatography steps: Heparin sepharose CL-6B, polyU sepharose 4B, and Hitrap SP sepharose (Pharmacia). The chromatography buffers were identical to the lysis buffer but contained no lysozyme, deoxyribonuclease I, MgCl2 or protease inhibitor and the NaCl concentration of the buffer was adjusted according to the requirements for charging the protein onto the column. Each column was eluted with a NaCl gradient which varied in length from 5-50 column volumes depending on the column type. After the final chromatography step, the resulting purity of the enzyme is >90% based on SDS-PAGE analysis. The enzyme was aliquoted and stored at −80° C.
Standard HCV NS5B RdRp enzyme assay. HCV RdRp genotype Ib assays were run in a final volume of 60 μl in 96 well plates (Costar 3912). The assay buffer is composed of 20 mM Hepes, pH 7.5, 2.5 mM KCl, 2.5 mM MgCl2, 1 mM DTT, 1.6 U RNAse inhibitor (Promega N2515), 0.1 mg/ml BSA (Promega R3961), and 2% glycerol. All compounds were serially diluted (3-fold) in DMSO and diluted further in water such that the final concentration of DMSO in the assay was 2%. HCV RdRp genotype 1b enzyme was used at a final concentration of 28 nM. A polyA template was used at 6 nM, and a biotinylated oligo-dT12 primer was used at 180 nM final concentration. Template was obtained commercially (Amersham 27-4110). Biotinylated primer was prepared by Sigma Genosys. ^3H-UTP was used at 0.6 μCi (0.29 μM total UTP). Reactions were initiated by the addition of enzyme, incubated at 30° C. for 60 min, and stopped by adding 25 μl of 50 mM EDTA containing SPA beads (4 μg/μl, Amersham RPNQ 0007). Plates were read on a Packard Top Count NXT after >1 hr incubation at room temperature.
The IC50 values for compounds were determined using seven different [I]. IC50 values were calculated from the inhibition using the formula y=A+((B−A)/(1+((C/x)^D))). FRET Assay Preparation. To perform the HCV FRET screening assay, 96-well cell culture plates were used. The FRET peptide (Anaspec, Inc.) (Taliani et al., Anal. Biochem. 240:60-67 (1996), hereby incorporated by reference in its entirety) contains a fluorescence donor, EDANS, near one end of the peptide and an acceptor, DABCYL, near the other end. The fluorescence of the peptide is quenched by […] resonance energy transfer (RET) between the donor and the acceptor, but as the NS3 protease cleaves the peptide the products are released from RET quenching and the fluorescence of the donor becomes apparent. […]

HCV replicon = HCV replicon luciferase assay; format: cell-based, Hepatitis C virus; conditions: luciferase method, read-out: EC50
Method: To prepare plates, HCV replicon cells, with or without a Renilla luciferase reporter gene, were trypsinized and placed into each well of a 96-well plate with titrated test compounds added in columns 3 through 12; columns 1 and 2 contained a control compound (HCV protease inhibitor), and the bottom row contained cells without compound. The plates were then placed in a CO2 incubator at 37 degrees C.
Assays. Subsequent to addition of the test compounds described above (FRET Assay Preparation), at various times the plate was removed and Alamar blue solution (Trek Diagnostics, #00-100) was added per well as a measure of cellular toxicity. After reading in a Cytoflour 4000 instrument (PE Biosystems), plates were rinsed with PBS and then used for FRET assay by the addition of 30 ul of the FRET peptide assay reagent described above (FRET Assay Preparation) per well. The plate was then placed into the Cytoflour 4000 instrument which had been set to 340 excite/490 emission, automatic mode for 20 cycles and the plate read in a kinetic mode. Typically, the signal to noise using an endpoint analysis after the reads was at least three-fold. Alternatively, after Alamar blue reading, plates were rinsed with PBS, 50 ul of DMEM (high glucose) without phenol red was added and plates were then used for luciferase assay using the Promega Dual-Glo Luciferase Assay System.
Compound analysis was determined by quantification of the relative HCV replicon inhibition and the relative cytotoxicity values. To calculate cytoxicity values, the average Alamar Blue fluorescence signals from the control wells were set as 100% non-toxic. The individual signals in each of the compound test wells were then divided by the average control signal and multiplied by 100% to determine […]. To calculate the HCV replicon inhibition values, an average background value was obtained from the two wells containing the highest amount of HCV protease inhibitor at the end of the assay period. These numbers were similar to those obtained from naïve Huh-7 cells.
The background numbers were then subtracted from the average signal obtained from the control wells and this number was used as 100% activity. The individual signals in each of the compound test wells were then divided by the averaged control values after background subtraction and multiplied by 100% to determine percent activity. EC50 values for a protease inhibitor titration were calculated as the concentration which caused a 50% reduction in FRET or luciferase activity. The two numbers generated for the compound plate, percent cytoxicity and percent activity were used to determine compounds of interest for further analysis.

T1 sequence (Q9WMX2 2420-2992): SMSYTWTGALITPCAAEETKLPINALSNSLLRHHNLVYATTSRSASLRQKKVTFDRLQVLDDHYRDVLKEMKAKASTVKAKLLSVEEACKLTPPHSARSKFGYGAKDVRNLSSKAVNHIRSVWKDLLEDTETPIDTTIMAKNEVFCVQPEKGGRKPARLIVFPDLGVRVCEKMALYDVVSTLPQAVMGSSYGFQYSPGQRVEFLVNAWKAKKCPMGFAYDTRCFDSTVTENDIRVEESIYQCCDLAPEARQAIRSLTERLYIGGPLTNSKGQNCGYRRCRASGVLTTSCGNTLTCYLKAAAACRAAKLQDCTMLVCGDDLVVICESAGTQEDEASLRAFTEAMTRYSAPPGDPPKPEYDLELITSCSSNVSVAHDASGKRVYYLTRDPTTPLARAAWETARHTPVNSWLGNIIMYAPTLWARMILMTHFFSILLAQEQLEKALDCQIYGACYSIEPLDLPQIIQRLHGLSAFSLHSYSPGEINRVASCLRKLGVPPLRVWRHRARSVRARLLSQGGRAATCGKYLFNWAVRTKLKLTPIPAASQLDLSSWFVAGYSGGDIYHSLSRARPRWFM

| SMILES | IC50 [1] [nM] | EC50 (HCV replicon) [nM] | EC50 (HCV replicon; Hepatitis C virus) [nM] |
| --- | --- | --- | --- |
| O=C(O)c1ccc2c(C3CCCCC3)c3n(c2c1)CC(C(=O)N1CCOCC1)Cc1ccccc1-3 (centres unmarked) [drawing 115] | 100 to 1000 | 100 to 1000 | – |
| O=C(O)c1ccc2c(C3CCCCC3)c3n(c2c1)CCCc1ncccc1-3 | 100 to 1000 | – | 100 to 1000 |
| COC(=O)c1ccc2c(C3CCCCC3)c3n(c2c1)C(O)c1ccccc1-3 (centres unmarked) [Example 8] | > 1000 | – | 1000 to 10000 |
| O=C(O)/C=C/c1ccc(NC(=O)C2(NC(=O)c3ccc4c(C5CCCCC5)c5n(c4c3)CCOc3ccccc3-5)CCCC2)cc1 | 100 to 1000 | – | < 100 |
| O=C(O)c1ccc2c(C3CCCCC3)c3n(c2c1)CC(C(=O)N1CCCCC1)Cc1ccccc1-3 (centres unmarked) [drawing 116] | 100 to 1000 | 100 to 1000 | – |
| O=C(O)c1ccc2c(C3CCCCC3)c3n(c2c1)CC=Cc1cc(OCc2ccccc2)ccc1-3 | > 1000 | – | 100 to 1000 |
| CCOC(=O)/C=C/c1ccc(NC(=O)C2(NC(=O)c3ccc4c(C5CCCCC5)c5n(c4c3)CCCc3ncccc3-5)CCCC2)cc1 | > 1000 | – | < 100 |
| O=C(O)c1ccc2c(C3CCCCC3)c3n(c2c1)CC(C(=O)N1CCCCC1)Cc1ccccc1-3 (centres unmarked) [drawing 117] | > 1000 | 1000 to 10000 | – |
| O=C(O)/C=C/c1ccc(NC(=O)C2(NC(=O)c3ccc4c(C5CCCCC5)c5n(c4c3)CC(C(=O)N3CCOCC3)Cc3ccccc3-5)CCCC2)cc1 (centres unmarked) | 100 to 1000 | – | < 100 |
| CNC(=O)C1Cc2ccccc2-c2c(C3CCCCC3)c3ccc(C(=O)O)cc3n2C1 (centres unmarked) | 100 to 1000 | – | 100 to 1000 |
| O=C(O)/C=C/c1ccc(NC(=O)C2(NC(=O)c3ccc4c(C5CCCCC5)c5n(c4c3)CC=Cc3ccccc3-5)CCCC2)cc1 | 100 to 1000 | – | < 100 |
| O=C(O)c1ccc2c(C3CCCCC3)c3n(c2c1)CC(C(=O)N1CCOCC1)Cc1ccccc1-3 (centres unmarked) [drawing 114] | > 1000 | 1000 to 10000 | – |
| CN1CCN(C(=O)C2Cc3ccccc3-c3c(C4CCCCC4)c4ccc(C(=O)NS(=O)(=O)N(C)C)cc4n3C2)CC1 (centres unmarked) | 100 to 1000 | – | 100 to 1000 |
| CN(C)S(=O)(=O)NC(=O)c1ccc2c(C3CCCCC3)c3n(c2c1)CC=Cc1ccccc1-3 [Example 19, 13-cyclohexyl-N-(dimethylaminosulfonyl)-7H-indolo[2,1-a][2]benzazepine-10-carboxamide] | 100 to 1000 | – | 100 to 1000 |
| COC(=O)c1ccc2c(C3CCCCC3)c3n(c2c1)CC(=O)Nc1cccnc1-3 [Example 14, Methyl 13-cyclohexyl-6,7-dihydro-6-oxo-5H-pyrido[3′,2′:5,6][1,4]diazepino[1,7-a]indole-10-carboxylate] | > 1000 | – | > 10000 |
| O=C(O)/C=C/c1ccc(NC(=O)C2(NC(=O)c3ccc4c(C5CCCCC5)c5n(c4c3)CCOc3cccnc3-5)CCCC2)cc1 | 100 to 1000 | – | < 100 |

| SMILES | IC50 [1] [nM] | EC50 (HCV replicon) [nM] | EC50 (HCV replicon; Hepatitis C virus) [nM] |
| --- | --- | --- | --- |
| COC(=O)c1ccc2c(C3CCCCC3)c3n(c2c1)CC(=O)Nc1ccccc1-3 [Example 20, Methyl 13-cyclohexyl-6,7-dihydro-6-oxo-5H-indolo[1,2-d][1,4]benzodiazepine-10-carboxylate] | > 1000 | – | 1000 to 10000 |
| O=C1Cn2c(c(C3CCCCC3)c3ccc(C(=O)NS(=O)(=O)C4CC4)cc32)-c2ccccc2N1 | 100 to 1000 | – | 100 to 1000 |
| O=C(O)/C=C/c1ccc(NC(=O)C2(NC(=O)c3ccc4c(C5CCCCC5)c5n(c4c3)CCCc3ccccc3-5)CCNCC2)cc1 [Example 29, 2-propenoic acid, 3-[4-[[[4-[[(13-cyclohexyl-6,7-dihydro-5H-indolo[2,1-a][2]benzazepin-10-yl)carbonyl]amino]-4-piperidinyl]carbonyl]amino]phenyl]-, (2E)-] | 100 to 1000 | – | < 100 |
| CN(C)S(=O)(=O)NC(=O)c1ccc2c(C3CCCCC3)c3n(c2c1)CC(C(=O)N1CCC(N2CCCC2)CC1)Cc1ccccc1-3 (centres unmarked) | 100 to 1000 | – | < 100 |
| O=C(O)c1ccc2c(C3CCCCC3)c3n(c2c1)Cc1ccccc1-3 [Example 7] | 100 to 1000 | – | > 10000 |
| CC(C)(C)OC(=O)N1/C=C\CCn2c(c(C3CCCCC3)c3ccc(C(=O)O)cc32)-c2ccccc21 | > 1000 | – | 1000 to 10000 |
| O=C(O)/C=C/c1ccc(NC(=O)C2(NC(=O)c3ccc4c(C5CCCCC5)c5n(c4c3)CCCCNc3ccccc3-5)CCCC2)cc1 | > 1000 | – | < 100 |
| O=C(O)c1ccc2c(C3CCCCC3)c3n(c2c1)CC(C(=O)N1CCCC(O)C1)Cc1ccccc1-3 (centres unmarked) [drawing 120] | > 1000 | 1000 to 10000 | – |
| O=C1Cn2c(c(C3CCCCC3)c3ccc(C(=O)O)cc32)-c2ncccc2N1 [Example 15, 13-cyclohexyl-6,7-dihydro-6-oxo-5H-pyrido[3′,2′:5,6][1,4]diazepino[1,7-a]indole-10-carboxylic acid] | 100 to 1000 | – | 1000 to 10000 |
| O=C(O)c1ccc2c(C3CCCCC3)c3n(c2c1)CC(C(=O)N1CCCC(O)C1)Cc1ccccc1-3 (centres unmarked) [drawing 121] | 100 to 1000 | 100 to 1000 | – |
| CN1CCN(C(=O)C2Cc3ccccc3-c3c(C4CCCCC4)c4ccc(C(=O)O)cc4n3C2)CC1 (centres unmarked) | 100 to 1000 | – | 100 to 1000 |
| O=C(O)/C=C/c1ccc(-c2nc(C3(NC(=O)c4ccc5c(C6CCCCC6)c6n(c5c4)CC=Cc4ccccc4-6)CCCC3)no2)cc1 [Example 25] | > 1000 | – | 100 to 1000 |
| COC(=O)c1ccc2c(C3CCCCC3)c3n(c2c1)CCCc1ccccc1-3 [Example 2, Methyl 13-cyclohexyl-6,7-dihydro-5H-indolo[2,1-a][2]benzazepine-10-carboxylate] | > 1000 | – | > 10000 |
| CN(C)CCNC(=O)C1Cc2ccccc2-c2c(C3CCCCC3)c3ccc(C(=O)O)cc3n2C1 (centres unmarked) | 100 to 1000 | – | 100 to 1000 |
| O=C(O)c1ccc(-c2nc(C3(NC(=O)c4ccc5c(C6CCCCC6)c6n(c5c4)CC=Cc4ccccc4-6)CCCC3)no2)cc1 [Example 24] | > 1000 | – | 100 to 1000 |
